The values that follow come from patent US10085986B2, “Pyrimidinone compounds and their use” (Takeda Pharmaceutical Company Limited, priority 2011, dated 2018).

Chain of Human DAAO Enzyme (P14920 whole entry): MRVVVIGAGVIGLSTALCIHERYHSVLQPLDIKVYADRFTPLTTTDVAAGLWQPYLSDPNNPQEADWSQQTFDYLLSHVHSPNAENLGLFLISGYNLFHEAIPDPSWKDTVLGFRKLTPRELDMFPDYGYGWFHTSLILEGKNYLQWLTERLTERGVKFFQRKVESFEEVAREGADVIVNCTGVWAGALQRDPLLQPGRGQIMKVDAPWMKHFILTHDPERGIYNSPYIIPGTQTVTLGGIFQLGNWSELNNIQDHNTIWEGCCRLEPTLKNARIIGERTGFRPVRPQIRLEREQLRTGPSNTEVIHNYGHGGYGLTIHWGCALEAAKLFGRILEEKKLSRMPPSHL

This assay concerns the target Human DAAO Enzyme (Homo sapiens (Human), UniProt P14920). Description: In vitro DAAO enzyme assay (Amplex Red detection of H2O2 from D-Serine). The conditions noted are these: inhibition of DAAO activity in the presence of 10 mM D-Serine; 60 minutes at 25° C. It is filed as biochemical. As for the experimental part: The functional activity of compounds inhibiting the DAAO enzyme was determined by utilizing the co-product of the catalysis of D-Serine, H2O2 which can be quantitatively measured using the Amplex Red (Invitrogen) detection. Amplex® Red reagent is a colorless substrate that reacts with hydrogen peroxide (H2O2) with a 1:1 stoichiometry in the presence of […] to produce highly fluorescent resorufin (excitationemission maxima=570/585 nm). The changes in fluorescence were monitored by a fluorescence plate reader, Envision (Perkin Elmer) and increases in DAAO activity were readily detected upon addition of D-Serine and suppression of this response observed with the application of test compounds.
The Km of D-Serine was measured for each enzyme batch to maintain consistency; this Km was used in subsequent assays.
On the day of the assay compounds were serially diluted in DMSO before being diluted 1:20 with assay buffer (20 mM Tris ph 7.4). A 5 μl portion of assay buffer was added to the wells of a 384 clear base black walled plate (Corning), 5 μl of diluted compound was then added via automated plate to plate transfer using the Bravo liquid handler (Agilent technologies) followed by 5 μl of human DAAO enzyme and then 5 μl D-Serine 50 mM was added to all but the negative control wells (final concentration of 10 mM). Finally 5 μl Amplex red reagent (Invitrogen) was added to all wells as per manufacturer's protocol. The plate was incubated for 60 minutes in the dark at 25° C. and the fluorescence in each well was measured in the Envision plate reader.
The IC50 values for compounds were determined from ten point half log scale dose-response studies and represent the concentration of compound required to […] 50% inhibition of DAAO activity in the presence of 10 mM D-Serine. Concentration response curves were generated using the average of duplicate wells for each data point and analyzed using nonlinear regression and four parameter curve fit.
As to `O=c1[nH]c(SCc2cccc(Cl)c2)ncc1O` [Example 1, 2-(3-Chlorobenzylthio)-5-hydroxypyrimidin-4(3H)-one], the IC50 is 120 nM.

Regarding `O=c1[nH]c(SCc2ccccc2)ncc1O` [Example 2, 2-(Benzylsulfanyl)-5-hydroxypyrimidin-4(3H)-one], the half-inhibitory concentration (IC50) worked out at 230 nM.

Regarding `O=c1[nH]c(SCc2ccc(Cl)cc2)ncc1O` [Example 4, 2-[(4-Chlorobenzyl)sulfanyl]-5-hydroxypyrimidin-4(3H)-one], the half-maximal inhibitory concentration (IC50) stood at 220 nM.

In the case of `O=c1[nH]c(SCc2ccc3ccccc3c2)ncc1O` [Example 5, 5-Hydroxy-2-[(naphthalen-2-ylmethyl)sulfanyl]pyrimidin-4(3H)-one], the IC50 came out at 120 nM.

For `O=c1[nH]c(SCc2cccc(F)c2)ncc1O` [Example 6, 2-[(3-Fluorobenzyl)sulfanyl]-5-hydroxypyrimidin-4(3H)-one], the IC50 was found to be 170 nM.

As to `COc1cccc(CSc2ncc(O)c(=O)[nH]2)c1` [Example 9, 5-Hydroxy-2-[(3-methoxybenzyl)sulfanyl]pyrimidin-4(3H)-one], the IC50 came to 160 nM.

On to `O=c1[nH]c(SCc2cccc(C(F)(F)F)c2)ncc1O` [Example 10, 5-Hydroxy-2-{[3-(trifluoromethyl)benzyl]sulfanyl}pyrimidin-4(3H)-one], for which the half-inhibitory concentration (IC50) amounted to 150 nM.

For the molecule `O=c1[nH]c(SCc2cc(F)cc(Cl)c2)ncc1O` [Example 11, 2-[(3-Chloro-5-fluorobenzyl)sulfanyl]-5-hydroxypyrimidin-4(3H)-one], the IC50 worked out at 150 nM.

On to `Cc1nc(-c2cccc(CSc3ncc(O)c(=O)[nH]3)c2)no1` [Example 12, 5-Hydroxy-2-{[3-(5-methyl-1,2,4-oxadiazol-3-yl)benzyl]-sulfanyl}-pyrimidin-4(3H)-one], for which the 50% inhibitory concentration (IC50) amounted to 500 nM.

Regarding `CC(Sc1ncc(O)c(=O)[nH]1)c1ccccc1` (stereo not shown) [Example 14, 5-Hydroxy-2-[(1-phenylethyl)sulfanyl]pyrimidin-4(3H)-one], the IC50 worked out at 1200 nM.

Regarding `O=c1[nH]c(SCc2cccc3c2OCCO3)ncc1O` [Example 16, 2-[(2,3-Dihydro-1,4-benzodioxin-5-ylmethyl)sulfanyl]-5-hydroxypyrimidin-4(3H)-one], the IC50 was 540 nM.

In the case of `O=c1[nH]c(SCc2cccc(OC(F)F)c2)ncc1O` [Example 18, 2-(3-(Difluoromethoxy)benzylthio)-5-hydroxypyrimidin-4(3H)-one], the 50% inhibitory concentration (IC50) was determined as 190 nM.

On to `O=c1[nH]c(SCc2cccnc2)ncc1O` [Example 20, 5-Hydroxy-2-(pyridin-3-ylmethylthio)pyrimidin-4(3H)-one], for which the IC50 worked out at 470 nM.

As to `Cc1cc(CSc2ncc(O)c(=O)[nH]2)n(C)n1` [Example 21, 2-((1,3-Dimethyl-1H-pyrazol-5-yl)methylthio)-5-hydroxypyrimidin-4(3H)-one], the concentration for half-maximal inhibition (IC50) was found to be 1600 nM.

On to `O=c1[nH]c(SCc2ccc3nccn3c2)ncc1O` [Example 26, 5-Hydroxy-2-[(imidazo[1,2-a]pyridin-6-ylmethyl)sulfanyl]-pyrimidin-4(3H)-one], for which the half-maximal inhibitory concentration (IC50) is 740 nM.

With `O=c1[nH]c(CSc2ccccc2)ncc1O` [Example 30, 5-Hydroxy-2-[(phenylsulfanyl)methyl]pyrimidin-4(3H)-one], the half-maximal inhibitory concentration (IC50) stood at 2800 nM.

Consider `O=c1[nH]c(COc2ccccc2)ncc1O` [Example 31, 5-Hydroxy-2-(phenoxymethyl)pyrimidin-4(3H)-one], for which the IC50 amounted to 3200 nM.

As to `O=c1[nH]c(CCc2ccccc2)ncc1O` [Example 33, 5-Hydroxy-2-(2-phenylethyl)pyrimidin-4(3H)-one], the concentration for half-maximal inhibition (IC50) amounted to 1200 nM.

For `O=c1[nH]c(SCc2ccccc2)nc(C(F)(F)F)c1O` [Example 34, 2-(Benzylsulfanyl)-5-hydroxy-6-(trifluoromethyl)pyrimidin-4(3H)-one], the half-maximal inhibitory concentration (IC50) came out at 2700 nM.

For orientation: IC50 means the point on the concentration scale where inhibition reaches its midpoint.
